In ChEMBL document CHEMBL3739333, “Nature of the charged head group dictates the anticancer potential of lithocholic acid-tamoxifen conjugates for breast cancer therapy” (Medchemcomm, 2015):
pIC50: −log10 of the molar value. Active and inactive are the calls of the source. No cut-off for these calls is given here.

Key:
MDA-MB-468 [1] = assay: Cytotoxicity against human ER negative MDA-MB-468 cells after 48 hrs by MTT assay; format: functional, cell-based; conditions: MDA-MB-468, 48 h
T47D [2] = assay: Cytotoxicity against human T47D cells expressing ER after 48 hrs by MTT assay; format: functional, cell-based
MCF7 [3] = assay: Cytotoxicity against human MCF7 cells expressing ER after 48 hrs by MTT assay; format: functional, cell-based; conditions: MCF7, 48 h
MDA-MB-231 [4] = assay: Cytotoxicity against human ER negative MDA-MB-231 cells after 48 hrs by MTT assay; format: functional, cell-based; conditions: MDA-MB-231, 48 h
Lipid bilayer [5] = assay: Binding affinity to DPPC membranes assessed as changes in membrane fluidity of liposomes by measuring fluorescence anisotropy; conditions: Liposome; TDE = time-dependent effect
[6] = Binding affinity to model membranes using Laurdan-based hydration assessed as changes in generalized polarization after 6 hrs
[7] = Retention time of the compound by HPLC analysis; format: physicochemical
MCF7 [8] = assay: Induction of apoptosis in human MCF7 cells expressing ER assessed as change in mitochondrial membrane potential at 10 to 20 uM after 48 hrs using DiOC6 dye based FACS analysis; format: functional, cell-based
MDA-MB-231 [9] = assay: Induction of apoptosis in human ER negative MDA-MB-231 cells assessed as increase of cleaved caspase 7 level at 10 uM after 48 hrs by Western blot analysis; format: functional, cell-based
MDA-MB-231 [10] = assay: Induction of apoptosis in human ER negative MDA-MB-231 cells assessed as increase of ROS level at 20 uM after 60 mins using DCFDA relative to control; format: functional
MCF7 [11] = assay: Induction of apoptosis in human MCF7 cells expressing ER assessed as effect of Bax protein expression at 10 uM after 48 hrs by Western blot analysis; format: functional, cell-based
MCF7 [12] = assay: Cell cycle arrest in human MCF7 cells expressing ER assessed as accumulation of sub-G0 phase at 20 uM after 48 hrs by FACS analysis relative to control; format: functional
MDA-MB-231 [13] = assay: Induction of apoptosis in human ER negative MDA-MB-231 cells assessed as change in mitochondrial membrane potential at 10 to 20 uM after 48 hrs using DiOC6 dye based FACS analysis; format: functional, cell-based
MDA-MB-231 [14] = assay: Induction of apoptosis in human ER negative MDA-MB-231 cells assessed as effect on caspase 9 level at 10 uM after 48 hrs by Western blot analysis; format: functional, cell-based
MDA-MB-231 [15] = assay: Cell cycle arrest in human ER negative MDA-MB-231 cells assessed as accumulation of sub-G0 phase after 48 hrs by FACS analysis; format: functional, cell-based
MDA-MB-231 [16] = assay: Induction of apoptosis in human ER negative MDA-MB-231 cells assessed as increase of Bax protein expression at 10 uM after 48 hrs by Western blot analysis; format: functional, cell-based
MCF7 [17] = assay: Induction of apoptosis in human MCF7 cells expressing ER assessed as decrease of Bcl-2 protein expression at 10 uM after 48 hrs by Western blot analysis; format: functional, cell-based
MCF7 [18] = assay: Induction of apoptosis in human MCF7 cells expressing ER assessed as increase of ROS level at 20 uM after 60 mins using DCFDA relative to control; format: functional, cell-based
MDA-MB-231 [19] = assay: Ratio of tamoxifen IC50 to compound IC50 for human ER negative MDA-MB-231 cells after 48 hrs by MTT assay; format: functional
MCF7 [20] = assay: Induction of apoptosis in human MCF7 cells expressing ER assessed as decrease of Bcl-xL protein expression at 10 uM after 48 hrs by Western blot analysis; format: functional, cell-based
MDA-MB-231 [21] = assay: Induction of apoptosis in human ER negative MDA-MB-231 cells assessed as increase of cleaved caspase 8 level at 10 uM after 48 hrs by Western blot analysis; format: functional, cell-based
MCF7 [22] = assay: Induction of apoptosis in human MCF7 cells expressing ER assessed as effect on caspase 9 level at 10 uM after 48 hrs by Western blot analysis; format: functional, cell-based
MDA-MB-231 [23] = assay: Induction of apoptosis in human ER negative MDA-MB-231 cells assessed as effect of Bcl-xL protein expression at 10 uM after 48 hrs by Western blot analysis; format: functional, cell-based
MDA-MB-231 [24] = assay: Induction of apoptosis in human ER negative MDA-MB-231 cells assessed as increase of cleaved caspase 6 level at 10 uM after 48 hrs by Western blot analysis; format: functional, cell-based
MCF7 [25] = assay: Decrease in caspase-7 level in human MCF7 cells expressing ER at 10 uM after 48 hrs by Western blot analysis; format: functional, cell-based
Lipid bilayer [26] = assay: Binding affinity to DPPC membranes assessed as lowering of phase transition temperature
MCF7 [27] = assay: Decrease in pro-caspase-8 level in human MCF7 cells expressing ER at 10 uM after 48 hrs by Western blot analysis; format: functional, cell-based
MDA-MB-231 [28] = assay: Induction of apoptosis in human ER negative MDA-MB-231 cells assessed as decrease of Bcl-2 protein expression at 10 uM after 48 hrs by Western blot analysis; format: functional, cell-based
MDA-MB-468 [29] = assay: Ratio of tamoxifen IC50 to compound IC50 for human ER negative MDA-MB-468 cells after 48 hrs by MTT assay; format: functional
MCF7 [30] = assay: Decrease in active-caspase-8 level in human MCF7 cells expressing ER at 10 uM after 48 hrs by Western blot analysis; format: functional, cell-based
MCF7 [31] = assay: Cell cycle arrest in human MCF7 cells expressing ER assessed as accumulation of sub-G0 phase after 48 hrs by FACS analysis; format: functional, cell-based
MDA-MB-231 [32] = assay: Cell cycle arrest in human ER negative MDA-MB-231 cells assessed as accumulation of sub-G0 phase at 20 uM after 48 hrs by FACS analysis relative to control; format: functional
MCF7 [33] = assay: Decrease in caspase-6 level in human MCF7 cells expressing ER at 10 uM after 48 hrs by Western blot analysis; format: functional, cell-based
T47D [34] = assay: Ratio of tamoxifen IC50 to compound IC50 for human ER positive T47D cells after 48 hrs by MTT assay; format: functional
MCF7 [35] = assay: Drug uptake in human MCF7 cells expressing ER; format: ADME, cell-based
MDA-MB-231 [36] = assay: Drug uptake in human ER negative MDA-MB-231 cells; format: ADME, cell-based

## CC/C(=C(\c1ccccc1)c1ccc(OCCN(C)C(=O)CC[C@@H](C)[C@H]2CC[C@H]3[C@@H]4CC[C@@H]5C[C@H](OC(=O)CN)CC[C@]5(C)[C@H]4CC[C@]23C)cc1)c1ccccc1
MDA-MB-468 [1]
  pIC50: < 4.30
T47D [2]
  pIC50: < 4.30
MCF7 [3]
  pIC50: < 4.30
MDA-MB-231 [4]
  pIC50: < 4.30
Lipid bilayer [5]
  Activity: tde
[6]
  Activity: Active

## CC/C(=C(\c1ccccc1)c1ccc(OCCN(C)C(=O)CC[C@@H](C)[C@H]2CC[C@H]3[C@@H]4CC[C@@H]5C[C@H](OC(=O)C[N+]6(C)CCOCC6)CC[C@]5(C)[C@H]4CC[C@]23C)cc1)c1ccccc1.[Cl-]
MDA-MB-468 [1]
  pIC50: 4.81
T47D [2]
  pIC50: 4.34
[7]
  Retention_time: 6.741 min
MCF7 [3]
  pIC50: 4.36
MDA-MB-231 [4]
  pIC50: 4.32

## CC/C(=C(\c1ccccc1)c1ccc(OCCN(C)C(=O)CC[C@@H](C)[C@H]2CC[C@H]3[C@@H]4CC[C@@H]5C[C@H](OC(=O)C[N+]6(C)CCCCC6)CC[C@]5(C)[C@H]4CC[C@]23C)cc1)c1ccccc1.[Cl-]
MDA-MB-468 [1]
  pIC50: 5.12
T47D [2]
  pIC50: 5.01
[7]
  Retention_time: 6.767 min
MCF7 [3]
  pIC50: 4.61
MDA-MB-231 [4]
  pIC50: 5.04

## CC/C(=C(\c1ccccc1)c1ccc(OCCN(C)C(=O)CC[C@@H](C)[C@H]2CC[C@H]3[C@@H]4CC[C@@H]5C[C@H](OC(=O)C[n+]6ccc(N(C)C)cc6)CC[C@]5(C)[C@H]4CC[C@]23C)cc1)c1ccccc1.[Cl-]
MCF7 [8]
  Activity: inactive
MDA-MB-468 [1]
  pIC50: 5.50
MDA-MB-231 [9]
  Activity: Active
MDA-MB-231 [10]
  fold change (FC): 2.3
MCF7 [11]
  Activity: inactive
MCF7 [12]
  fold change (FC): 6
MDA-MB-231 [13]
  Activity: Active
T47D [2]
  pIC50: 5.15
MDA-MB-231 [14]
  Activity: inactive
MDA-MB-231 [15]
  Activity: Dose-dependent effect
MDA-MB-231 [16]
  Activity: Active
MCF7 [17]
  Activity: Active
[7]
  Retention_time: 6.837 min
MCF7 [3]
  pIC50: 4.90
MCF7 [18]
  Activity: inactive
MDA-MB-231 [4]
  pIC50: 5.19
MDA-MB-231 [19]
  Ratio IC50: 4
MCF7 [20]
  Activity: Active
MDA-MB-231 [21]
  Activity: Active
MCF7 [22]
  Activity: inactive
MDA-MB-231 [23]
  Activity: inactive
MDA-MB-231 [24]
  Activity: Active
MCF7 [25]
  inhibition: Active
Lipid bilayer [26]
  Activity: Active
MCF7 [27]
  inhibition: Active
MDA-MB-231 [28]
  Activity: Active
Lipid bilayer [5]
  Activity: tde
[6]
  Activity: Active
MDA-MB-468 [29]
  Ratio IC50: 4
MCF7 [30]
  inhibition: Active
MCF7 [31]
  Activity: Dose-dependent effect
MDA-MB-231 [32]
  fold change (FC): 5
MCF7 [33]
  inhibition: Active
T47D [34]
  Ratio IC50: 4

## CC/C(=C(\c1ccccc1)c1ccc(OCCN(C)C(=O)CC[C@@H](C)[C@H]2CC[C@H]3[C@@H]4CC[C@@H]5C[C@H](OC(=O)C[N+](C)(C)C)CC[C@]5(C)[C@H]4CC[C@]23C)cc1)c1ccccc1.[Cl-]
MDA-MB-468 [1]
  pIC50: 4.83
T47D [2]
  pIC50: 5.09
[7]
  Retention_time: 6.676 min
MCF7 [3]
  pIC50: 4.54
MDA-MB-231 [4]
  pIC50: 4.74

## CC/C(=C(\c1ccccc1)c1ccc(OCCN(C)C(=O)CC[C@@H](C)[C@H]2CC[C@H]3[C@@H]4CC[C@@H]5C[C@H](OC(=O)C[N+]6(C)CCCC6)CC[C@]5(C)[C@H]4CC[C@]23C)cc1)c1ccccc1.[Cl-]
MDA-MB-468 [1]
  pIC50: 5.18
T47D [2]
  pIC50: 5.08
[7]
  Retention_time: 6.79 min
MCF7 [3]
  pIC50: 4.62
MDA-MB-231 [4]
  pIC50: 4.90

## CC/C(=C(\c1ccccc1)c1ccc(OCCN(C)c2ccc([N+](=O)[O-])c3nonc23)cc1)c1ccccc1
MCF7 [35]
  Drug uptake: Active
MDA-MB-231 [36]
  Drug uptake: Active

## CC/C(=C(\c1ccccc1)c1ccc(OCCN(C)C(=O)CC[C@@H](C)[C@H]2CC[C@H]3[C@@H]4CC[C@@H]5C[C@H](OC(=O)C[N+]67CCN(CC6)CC7)CC[C@]5(C)[C@H]4CC[C@]23C)cc1)c1ccccc1.[Cl-]
MDA-MB-468 [1]
  pIC50: 4.68
T47D [2]
  pIC50: 4.75
[7]
  Retention_time: 6.735 min
MCF7 [3]
  pIC50: < 4.30
MDA-MB-231 [4]
  pIC50: 4.70

## C[C@H](CCC(=O)NCc1cn(CCNc2ccc([N+](=O)[O-])c3nonc23)nn1)[C@H]1CC[C@H]2[C@@H]3CC[C@@H]4C[C@H](OC(=O)C[n+]5ccc(N(C)C)cc5)CC[C@]4(C)[C@H]3CC[C@]12C.[Cl-]
MCF7 [35]
  Drug uptake: Active
MDA-MB-231 [36]
  Drug uptake: Active

## CC/C(=C(\c1ccccc1)c1ccc(OCCN(C)C)cc1)c1ccccc1 [TAMOXIFEN]
MCF7 [8]
  Activity: inactive
MDA-MB-468 [1]
  pIC50: 4.82
MDA-MB-231 [10]
  fold change (FC): 1.8
MCF7 [12]
  fold change (FC): 2
MDA-MB-231 [13]
  Activity: inactive
T47D [2]
  pIC50: 4.52
MDA-MB-231 [15]
  Activity: Dose-dependent effect
MDA-MB-231 [4]
  pIC50: 4.57
Lipid bilayer [26]
  Activity: inactive
Lipid bilayer [5]
  Activity: tde
[6]
  Activity: inactive
MCF7 [31]
  Activity: Dose-dependent effect
MDA-MB-231 [32]
  fold change (FC): 3

## CC/C(=C(\c1ccccc1)c1ccc(OCCN(C)C(=O)CC[C@@H](C)[C@H]2CC[C@H]3[C@@H]4CC[C@@H]5C[C@H](OC(=O)C[n+]6ccccc6)CC[C@]5(C)[C@H]4CC[C@]23C)cc1)c1ccccc1.[Cl-]
MDA-MB-468 [1]
  pIC50: 4.87
T47D [2]
  pIC50: 4.76
[7]
  Retention_time: 7.033 min
MCF7 [3]
  pIC50: < 4.30
MDA-MB-231 [4]
  pIC50: 4.74

## C[C@H](CCC(=O)O)[C@H]1CC[C@H]2[C@@H]3CC[C@@H]4C[C@H](OC(=O)C[n+]5ccc(N(C)C)cc5)CC[C@]4(C)[C@H]3CC[C@]12C
MCF7 [8]
  Activity: inactive
MDA-MB-468 [1]
  pIC50: 5.04
T47D [2]
  pIC50: 4.88
MDA-MB-231 [15]
  Activity: Dose-dependent effect
MCF7 [3]
  pIC50: 4.36
MDA-MB-231 [4]
  pIC50: 4.86
Lipid bilayer [26]
  Activity: Active
Lipid bilayer [5]
  Activity: tde
[6]
  Activity: inactive
MCF7 [31]
  Activity: Dose-dependent effect
